Measured values published in patent US20210379046A1, “Methods of Treating Diseases Using Kinase Modulators” (Memorial Sloan Kettering Cancer Center, priority 2018, published 2021).
Several values for one entry are separate records, joined by “and”; a condition that tells them apart may be missing. Equal entries are not always repeated. Entries after “also recorded” stand apart in the source; their conditions may differ.

How the values were obtained:
Format in all cases: cell-based, human
TPC1 cells = experiment: Flow cytometry of cell surface HLA and checkpoint ligands on TPC1 cells
Procedure: (§1) If adherent cells, they were seeded one day before treatment.

LC-2/ad cells = experiment: Flow cytometry of cell surface HLA on LC-2/ad cells; conditions: 72 hrs
Procedure: as §1

[1] = tested on: pSTAT3, pSTAT1 in TPC1 cells; experiment: Western blot of STAT phosphorylation in TPC1 cells; conditions: TPC1, 10 nM AST487, 24 hrs
Procedure: Cells were seeded in a 60 mm dish or 6 well plates. After the appropriate time point, cells were harvested and lysed and protein was quantified by a Lowry assay (Bio-Rad DC Protein Assay; #5000116). Protein levels were normalized and run on SDS PAGE gels (Bio-Rad). Protein was transferred to a nitrocellulose membrane using semi-dry transfer. Membrane was blocked and incubated with respective antibodies. When needed, secondary antibodies with HRP were incubated for 1 hr. Enhanced chemiluminescent substrate for HRP enzymes was used to image protein levels (Thermo-Fischer; #34095).
Cells were seeded in a 60 mm dish or 6 well plates. After the appropriate time point, cells were harvested, lysed in RIPA buffer (Thermo Instruments) and protein concentration was quantified by a Lowry assay (using the Bio-Rad DC Protein Assay; #5000116 on a Spectramax device from Molecular Devices). Protein loading levels were equalized per lane and separated on SDS gels (Bio-Rad). Protein was transferred to a nitrocellulose membrance using semi-dry transfer (BioRad). Membranes were blocked with Omniblock (American Bio) and incubated with respected antibodies. When needed, secondary antibodies with HRP were incubated for 1 hr. Enhanced chemiluminescent substrate for HRP enzymes was used to image protein levels (Thermo-Fischer; #34095) on a ChemiDoc MP imager with Soft Max Pro software (Biorad).

## CCN1CCN(Cc2ccc(NC(=O)Nc3ccc(Oc4cc(NC)ncn4)cc3)cc2C(F)(F)F)CC1 [AST487]
TPC1 cells; TPC1, 10 nM AST487, 72 hrs
  HLA levels increase without STAT3 knockdown: 3 fold
TPC1 cells; TPC1, 72 hours
  increase in surface HLA-A,B,C levels: 3- to 4 fold and 3 to 4 fold
TPC1 cells; TPC1, 72 hrs
  surface HLA-A*02:01: dose dependent increase in surface HLA-A*02
  surface HLA-A,B,C: Surface HLA-A,B,C increase
  surface HLA-E levels: did not change
TPC1 cells; TPC1, 72 hrs, normalized to DMSO
  HLA upregulation, AST487 compared with trametinib at the same concentrations: more potent and increased HLA levels at lower doses of drug; also recorded: higher levels of HLA upregulation
TPC1 cells; TPC1, AST 487 10 nM, 72 hours
  HLA-A02 (BB7-FITC) surface level: led to upregulation of HLA
TPC1 cells; TPC1, siSTAT3 24 hrs before 10 nM AST487, 72 hrs, HLA-A*02
  HLA levels increase after siSTAT3 pretreatment: ~6 folds
TPC1 cells; TPC1 pBabe, 72 hours
  increase in surface HLA, control group (pBabe): ~3 fold
TPC1 cells; TPC1 with introduced BRAF V600E mutation
  increase in surface HLA, BRAF V600E cells: about 2 fold
LC-2/ad cells
  surface HLA: only small increases were seen; also recorded: increases in surface HLA
[1]
  STAT3 phosphorylation: increased significantly; also recorded: increased phosphorylation of STAT3 at 24 hrs
